# Experimental data from US12648928B2, “Intervention strategy for prevention or treatment of diabetes mellitus, autoimmune disease, inflammatory disease or cardiovascular disease” (ACADEMISCH MEDISCH CENTRUM, priority 2020, dated 2026).
# “Also recorded” adds a separate entry of the source.
# Assays:
# INS1E beta cells = test: Seahorse XF intracellular metabolism, INS1E beta cells; format: cell-based, rat
# Description: Lastly, it was investigated whether 6-BT may influence the mitochondrial metabolism of beta cells, which rely on ATP and mitochondrial metabolite production for insulin exocytosis. […] Intracellular metabolism measured using a Seahorse XF Analyzer Uchimura T., The Innate Immune Sensor NLRC3 Acts as a Rheostat that Fine-Tunes T Cell Responses in Infection and Autoimmunity.
# NF-kB pathway [1] = test: Phosphorylated p65 subunit after PMA/ionomycin activation, Jurkat cells; format: cell-based; conditions: human Jurkat cells; PMA 50 μg/ml and ionomycin 1 μg/ml; 5-10 minutes after activation (FIG. 18)
# Description: (§1) Seeking for the molecular mechanism(s) underlying 6-BT actions, 6-BT impact on the activation of the NF-kB pathway, a central pathway in all inflammatory diseases (beyond autoimmunity) was checked first. […] Upon T cell activation with PMA ([…]) and ionomycin (1 μg/ml), 6-BT could inhibit, at very early time-points (5-10 minutes after activation), the NF-kB signaling. This effect was found in both murine and human (Jurkat cells) CD4 T cells.
# NF-kB pathway [2] = test: Phosphorylated p65 subunit after PMA/ionomycin activation, murine CD4 T cells; format: cell-based; conditions: PMA 50 μg/ml and ionomycin 1 μg/ml, 5-10 minutes after activation (FIG. 18)
# Description: as §1
# AhR = target: T1, AhR (Homo sapiens, UniProt P35869); test: AhR activation
# T1 sequence (P35869 11-848): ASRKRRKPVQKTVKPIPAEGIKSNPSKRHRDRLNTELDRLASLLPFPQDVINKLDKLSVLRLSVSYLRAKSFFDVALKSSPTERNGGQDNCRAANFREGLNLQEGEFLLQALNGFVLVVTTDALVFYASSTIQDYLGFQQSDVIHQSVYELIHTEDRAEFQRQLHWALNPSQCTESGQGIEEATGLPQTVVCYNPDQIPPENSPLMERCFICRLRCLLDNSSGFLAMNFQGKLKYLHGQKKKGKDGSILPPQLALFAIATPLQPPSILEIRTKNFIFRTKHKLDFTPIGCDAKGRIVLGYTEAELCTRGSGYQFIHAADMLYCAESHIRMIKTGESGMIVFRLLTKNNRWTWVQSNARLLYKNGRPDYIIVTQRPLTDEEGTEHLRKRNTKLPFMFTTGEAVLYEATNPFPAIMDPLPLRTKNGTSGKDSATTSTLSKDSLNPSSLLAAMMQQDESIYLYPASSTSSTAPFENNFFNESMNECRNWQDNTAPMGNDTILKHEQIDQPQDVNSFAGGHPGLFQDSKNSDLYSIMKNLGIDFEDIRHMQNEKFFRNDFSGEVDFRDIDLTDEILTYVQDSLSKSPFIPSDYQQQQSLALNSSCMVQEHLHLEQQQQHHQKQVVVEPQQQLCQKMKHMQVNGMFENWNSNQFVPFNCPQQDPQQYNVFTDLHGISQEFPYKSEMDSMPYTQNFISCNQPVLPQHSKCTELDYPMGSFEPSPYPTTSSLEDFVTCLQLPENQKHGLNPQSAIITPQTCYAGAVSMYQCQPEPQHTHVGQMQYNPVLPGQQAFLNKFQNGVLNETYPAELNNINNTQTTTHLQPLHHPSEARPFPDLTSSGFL
# murine CD4 T cells = test: Seahorse XF mitochondrial metabolism (OCR), murine CD4 T cells; format: cell-based; conditions: 100 uM; murine CD4 T cells (FIG. 22)
# Description: (§2) Finally, it was uncovered that 6-BT also impacts the intracellular metabolism.
# (§3) OCR=oxygen consumption rate, used as a proxy of cellular utilization of mitochondrial oxidative phosphorylation. OCR was measured using a Seahorse XF Analyzer Uchimura T., The Innate Immune Sensor NLRC3 Acts as a Rheostat that Fine-Tunes T Cell Responses in Infection and Autoimmunity. Immunity 2019; Chou, AIM2 in regulatory T cells restrains autoimmune diseases, Nature 2021.
# murine CD4+ T cells = test: In vitro CD4+ T cell activation assay (anti-CD3/anti-CD28); format: cell-based
# Description: Primary CD4+ T cells were freshly isolated by negative selection from spleens of C57/B16 mice (N=3 per experiment). Briefly, spleens were smashed in a culture dish and passed twice through a strainer (70 μm and 40 μm, respectively) to obtain a single-cell suspension.
# Using the negative selection (CD4+ T Cell Isolation kit, Miltenyi Biotec, #130-10-454). Non-CD4 T cells were depleted by retaining them in LS magnetizing column (Miltenyi Biotec).
# Isolated CD4 T cells were cultured in 96-well plates (1×10^5 per well) in RPMI1640 medium supplemented with 10% fetal bovine serum, 100 U/ml penicillin, 100 μg/ml streptomycin, 2 mM L-glutamine. Treatment with the metabolites 6-BT (1/10 μM), LysoPC(20:0) (10/50 μM) or MA-GPC (10/50/100 μM) and activation with 2.5 μg/ml soluble anti-CD3 (145-2C11, eBioscience) and 1 μg/ml soluble anti-CD28 (37.51, eBioscience) antibodies started immediately after seeding in 200 i/well complete RPMI1640 media for a 24-hour period, at the end of which supernatant was harvested and stored at −80° C.
# Specific ELISAs (R&D Systems) were utilized to measure the concentration of TNFα, IFNβ, and IFNγ in cell supernatant of murine monocytes, macrophages ad T cells, respectively, according to the manufacturer's instructions. The concentration of insulin after 24-hour treatment with metabolites or after GSIS were determined using Rat insulin ELISA (Mercodia) according to the manufacturer's instructions. GSIS was calculated by subtracting the concentration of insulin at 1 mM glucose to the insulin rate at 22 mM glucose.
# Particularly in the context of autoimmune diabetes, the activity of T cells is driving disease onset and progression. […] To mimic antigen presentation, murine CD4 T cells (isolated from spleens; Uchimura T., The Innate Immune Sensor NLRC3 Acts as a Rheostat that Fine-Tunes T Cell Responses in Infection and Autoimmunity. Immunity 2019) were activated by monoclonal antibodies against CD3 and CD28 (2.5 and 1 μg/ml, respectively).
# [3] = test system: human (Jurkat) CD4 T cells; test: Seahorse XF mitochondrial metabolism (OCR), Jurkat CD4 T cells; format: cell-based; conditions: 100 uM; human (Jurkat) CD4 T cells (FIG. 22)
# Description: as §2, §3
# [4] = test system: pro-inflammatory M1 macrophages; test: Seahorse XF intracellular metabolism, M1 macrophages; format: cell-based; conditions: M1 macrophages differentiated in presence of LPS and IFNgamma (FIG. 23)
# Description: Intracellular metabolism measured using a Seahorse XF Analyzer, Uchimura T., The Innate Immune Sensor NLRC3 Acts as a Rheostat that Fine-Tunes T Cell Responses in Infection and Autoimmunity. Immunity 2019; Chou, AIM2 in regulatory T cells restrains autoimmune diseases, nature 2021.
compound,measurement,setting,value
"N[C@@H](Cc1c[nH]c2cc(Br)ccc12)C(=O)O [6-BT, 6-bromotryptophan]",mitochondria metabolism at steady-state,INS1E beta cells; INS1E beta cells (FIG. 24),increased mitochondria metabolism
same,mitochondria metabolism under hyperglycemia,"INS1E beta cells; INS1E beta cells, 25 mM glucose (FIG. 24)",increased mitochondria metabolism
same,NF-kB signaling (phosphorylated p65 subunit),NF-kB pathway [1],could inhibit
same,NF-kB signaling (phosphorylated p65 subunit),NF-kB pathway [2],could inhibit
same,activation of AhR,AhR,does not act through activation of AhR
same,mitochondrial metabolism (OCR),murine CD4 T cells,promotes the mitochondrial metabolism
same,production of the Th1 cytokine IFNgamma,"murine CD4+ T cells; CD4 T cells from spleens, anti-CD3 2.5 μg/ml and anti-CD28 1 μg/ml (FIGS. 16, 20)",significantly reduced; also recorded: exerted inhibitory effect
same,Th1 responses in CD4 T cells,"murine CD4+ T cells; anti-CD3 & anti-CD28 mAbs, 24 hours (FIG. 11)",dampen Th1 responses
same,mitochondrial metabolism (OCR),[3],promotes the mitochondrial metabolism
same,glycolytic flux,[4],without affecting the glycolytic flux
same,mitochondrial metabolism,[4],could enhance the mitochondrial metabolism
